Drawing on patent US11891400B2, “Pyrazolo[1,5-a]pyrimidine-3-carboxamide derivatives useful in the treatment of psoriasis and systemic lupus erythematosus” (Eli Lilly and Company, priority 2018, dated 2024), this text covers IC50 for 2 compounds.

Experiment [1] concerns IFNα signaling through pSTAT1 in TF1 cells. Put plainly: Inhibition of IFNα signaling through pSTAT1 in TF1 cells. The experiment is classed as cell-based. The settings on record: Homo sapiens, TF-1, 20 min, 10 ng/ml IFNα2 for 20 minutes, AlphaLISA, geometric mean (SEM), read-out: IC50, inhibition of p-Stat1 (Tyr701). The procedure: TF1 cells (ATCC, CL-2003) are grown in RPMI 1640 (GIBCO) supplemented with 10% dialyzed FBS, 0.1 mg/ml Ampicillin and 2 ng/mL granulocyte macrophage colony stimulating factor. TF1 cells (100 K per well) are seeded in a 96-well poly-D-lysine coated plates in serum-free DMEM and incubated overnight at 37° C. under 5% CO2. Example 1 is serially diluted in DMSO, added to the cells, and incubated at 37° C. for 1 hr. Cells are then stimulated with 10 ng/ml IFNα2 at 37° C. for 20 minutes. After removing the medium, the cells are lysed in buffer containing Halt protease and phosphatase inhibitor cocktail (Thermo Scientific #78441) at room temperature for 30 minutes. The amount of p-Stat1 (Tyr701) is quantified as light emission at 615 nm using the AlphaLISA SureFire Ultra p-Stat1 (Tyr701) assay kit (Perkin Elmer #ALSU-PST1-A50K) following the vendor's recommended protocol. Percent inhibition at each inhibitor concentration is calculated and fit to the four parameter nonlinear logistic equation using Genedata Screener® to give an IC50 for the compound of Example 1 of 0.008 μM (±0.001 μM, n=5) and for the compound of Example 2 of 0.010 μM (±0.001 μM, n=4) expressed as GeoMetric means with the standard error of the mean (SEM).

For experiment [2], the system named is IL-23 signaling (STAT3 phosphorylation) in Kit225 cells. As to the kind of experiment: IL23 pSTAT3 AlphaLISA assay. The settings on record: 0.5 h, IL23 25 ng/ml for 30 minutes, geometric mean (SEM), read-out: relative IC50, IL23 pSTAT3. The experiment is classed as cell-based. The protocol:
IL2-dependent Kit225 cells expressing endogenous IL23 receptors are stably transduced with the Lenti STAT3 Reporter linked to firefly luciferase (SABiosciences CLS-6028L). These cells are used to monitor TYK2 activity by quantifying gene expression caused by STAT3 phosporylation following induction by IL23 in the presence of IL2 using AlphaLISA technology (TGR Biosciences ALSU-TST3-A50K). The cells are grown in RPMI 1640 (Gibco 22400) supplemented with 10% FBS (Invitrogen 10082), 1× Pen/Strep (Gibco 15140-122), 200 ng/ml Puromycin (Sigma P9620), and fresh 10 ng/ml recombinant human IL2 (R&D Systems 202-IL-50). For assay preparation, cells are dispensed into Biocoat black poly-d-lysine coated clear bottom 384-well plates (Becton Dickinson Bio-Coat 35-4640) in DMEM (Sigma D5796) at 300,000 cells/well and allowed to incubate overnight at 37° C. Compounds solubilized in DMSO are serially diluted 1:3 to produce a 10-point concentration response curve (final DMSO=0.1%). Cells are pre-incubated with Example 1 for 1 hour at 37° C., then stimulated with IL23 (25 ng/ml final) for 30 minutes. […] The AlphaLISA reaction is performed following the vendor's recommended protocol, and the luciferase levels are measured using an Envision plate reader (Perkin Elmer). […]

Experiment [3] deals with T1, TYK2 JH2 (Homo sapiens, UniProt P29597).
T1 construct: The pseudokinase domain (JH2) of human JAK (Janus family of cytoplasmic tyrosine kinases) family tyrosine kinase 2 (TYK2); made in house
Put plainly: Binding to TYK2 JH2 by Scintillation Proximity Assay. The note with it: His-tagged TYK2 JH2, 3H-labelled ligand 50 nM, SPA; geometric mean (SEM); read-out: IC50, inhibition of radioligand binding to TYK2 JH2. An excerpt:
The pseudokinase domain (JH2) of human JAK (Janus family of cytoplasmic tyrosine kinases) family tyrosine kinase 2 (TYK2) with an N-terminal His^6 tag is expressed in baculovirus and purified by Ni-NTA affinity and size-exclusion chromatography. Yttrium (YSi) His-Tag scintillation proximity assay (SPA) beads (cat #PRNQ0096) are purchased from PerkinElmer Life Sciences. ^3H—N-[(1R)-1-[3-[8-Methyl-5-(methylamino)-8H-imidazo[4,5-d]thiazolo[5,4-b]pyridin-2-yl]phenyl]ethyl]-2-(methylsulfonyl) benzamide is synthesized by Quotient Bio with a specific activity of 63 Ci/mmol and a concentration 6.78 μM stored in ethanol (cat #TRQ41678) (See also e.g., J. S. Tokarski, et al., J. Biol. Chem., vol. 290(17), pages 11061-11074 (2015) and R. Moslin, et al., Med. Chem. Commun., vol. 8, pages 700-712 (2017)).
A 3 fold, 10 point serial dilution of Example 1 is prepared in 100% DMSO (200 nL) and transferred to a 96 well, white, clear bottom, non-binding surface assay plate (Costar 3604) using acoustic liquid handling. Control wells used to determine percent inhibition contained either DMSO (200 nL) or cold, unlabeled inhibitor (200 nL, 10 mM, 200 μM final concentration). […] After 15 minutes at room temperature, radioactivity is counted using the Trilux Microbeta.

T1 sequence (P29597 589-875 limits assumed): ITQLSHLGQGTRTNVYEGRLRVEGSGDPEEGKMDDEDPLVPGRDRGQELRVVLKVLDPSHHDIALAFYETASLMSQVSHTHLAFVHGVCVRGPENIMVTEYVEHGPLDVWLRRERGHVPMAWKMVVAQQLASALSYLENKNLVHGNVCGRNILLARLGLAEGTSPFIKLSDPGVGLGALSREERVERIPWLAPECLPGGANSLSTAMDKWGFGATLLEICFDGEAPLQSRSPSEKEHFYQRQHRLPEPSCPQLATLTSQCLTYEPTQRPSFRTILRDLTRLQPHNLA

Take `CNc1cc(Nc2ccccc2OC)nc2c(C(=O)N[C@@H]3CCN(C)C3=O)cnn12` [Example 1, 5-(2-Methoxyanilino)-7-(methylamino)-N-[(3R)-1-methyl-2-oxo-pyrrolidin-3-yl]pyrazolo[1,5-a]pyrimidine-3-carboxamide]: the IC50 was 8 nM in experiment [1], 9 nM in experiment [2] and 45 nM in experiment [3].

With `CCOc1ccccc1Nc1cc(NC)n2ncc(C(=O)N[C@@H]3CCN(C)C3=O)c2n1` (single isomer, unassigned) [Example 2], the IC50 in experiment [1] worked out at 10 nM; in experiment [2], 10 nM; in experiment [3] it was 40 nM.
